Results reported in ChEMBL document CHEMBL1201862, “PubChem BioAssay data set” (2004).
Calls of active or inactive are those of the source.

Tests used:
[1] = biological target: Dual specificity protein phosphatase 3 (Homo sapiens, UniProt P51452); assay: VHR1 inhibitor Ki determination, SAR follow-up, biochemical, colorimetric (AID 2004)
[2] = biological target: G-protein coupled receptor 35 (Homo sapiens, UniProt Q9HC97); assay: GPR35 antagonists blocking zaprinast-driven arrestin recruitment, primary screen, imaging, U2OS, beta-arrestin-GFP, zaprinast agonist (AID 2058); format: functional;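 note: antagonist potency meaning inhibition of agonist-induced arrestin redistribution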
[3] = biological target: T1, Calpain-2 catalytic subunit (Sus scrofa, UniProt P43367); assay: pig calpain II inhibitor potency, dose response, biochemical, fluorogenic peptide substrate (AID 1420); format: functional
T1 sequence (P43367 whole entry): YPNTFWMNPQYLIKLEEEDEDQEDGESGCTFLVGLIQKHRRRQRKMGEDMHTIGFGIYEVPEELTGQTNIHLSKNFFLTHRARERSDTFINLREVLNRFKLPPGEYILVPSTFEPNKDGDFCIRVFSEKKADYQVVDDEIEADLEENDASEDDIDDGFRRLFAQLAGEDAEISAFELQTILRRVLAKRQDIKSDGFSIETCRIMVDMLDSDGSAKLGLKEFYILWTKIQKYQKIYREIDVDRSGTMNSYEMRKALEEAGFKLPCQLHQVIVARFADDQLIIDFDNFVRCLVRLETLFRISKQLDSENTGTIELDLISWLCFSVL

[4] = enhancers of respiration in Yfh1-depleted yeast, dose response, Friedreich's ataxia, plus single-dose screen (AID 1465); format: functional;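 note: yeast depleted of Yfh1p frataxin homolog grown on glycerol needing respiration; WST-1 tetrazolium dye reduction as measure of cellular dehydrogenase metabolic activity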
Leucine aminopeptidase = biological target: T2, Leucine aminopeptidase (Plasmodium falciparum 3D7, UniProt Q8IL11); assay: P. falciparum M17LAP inhibitors, primary screen, biochemical, fluorogenic H-Leu-NHMec substrate, 1536-well (AID 1619); format: functional
T2 sequence (Q8IL11 whole entry): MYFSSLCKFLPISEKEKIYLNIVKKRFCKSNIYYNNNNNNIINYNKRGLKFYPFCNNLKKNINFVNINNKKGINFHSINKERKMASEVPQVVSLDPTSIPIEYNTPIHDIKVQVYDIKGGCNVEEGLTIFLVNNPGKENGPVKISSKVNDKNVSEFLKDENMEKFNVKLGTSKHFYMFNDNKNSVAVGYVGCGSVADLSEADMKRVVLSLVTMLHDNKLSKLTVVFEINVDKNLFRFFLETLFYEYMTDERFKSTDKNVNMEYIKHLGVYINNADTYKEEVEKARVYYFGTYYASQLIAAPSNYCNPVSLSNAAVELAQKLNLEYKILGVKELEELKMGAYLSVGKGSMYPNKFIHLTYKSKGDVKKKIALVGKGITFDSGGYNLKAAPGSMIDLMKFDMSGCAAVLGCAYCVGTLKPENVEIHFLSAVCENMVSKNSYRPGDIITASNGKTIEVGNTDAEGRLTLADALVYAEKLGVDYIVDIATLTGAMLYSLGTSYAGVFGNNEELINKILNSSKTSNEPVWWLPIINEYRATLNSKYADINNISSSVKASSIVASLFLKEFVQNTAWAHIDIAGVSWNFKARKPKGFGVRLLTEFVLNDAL

Beta-lactamase [5] = biological target: Beta-lactamase (Pseudomonas aeruginosa, UniProt Q79MP6);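 note: biochemical dose-response test of metallo-beta-lactamase enzyme inhibition, read out by epi-absorbance; purified recombinant IMP-1 metallo-beta-lactamase with nitrocefin as substrate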
Beta-lactamase (Pseudomonas aeruginosa, UniProt Q79MP6), sequence (Q79MP6 whole entry): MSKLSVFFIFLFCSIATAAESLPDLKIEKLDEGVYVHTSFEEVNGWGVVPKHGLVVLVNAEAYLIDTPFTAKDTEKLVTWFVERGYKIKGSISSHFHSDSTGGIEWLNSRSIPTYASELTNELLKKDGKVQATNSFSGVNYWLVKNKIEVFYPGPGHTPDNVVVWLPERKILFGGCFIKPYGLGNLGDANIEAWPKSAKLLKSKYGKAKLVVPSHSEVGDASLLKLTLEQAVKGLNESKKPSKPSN

Beta-lactamase [6] = biological target: Beta-lactamase (Salmonella choleraesuis (strain SC-B67), UniProt Q5J463)
[7] = biological target: Neurotensin receptor type 1 (Homo sapiens, UniProt P30989); format: functional;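 note: Image-based confirmatory dose-response assay measuring agonist activity at NTR1; NTR1-expressing U2OS osteosarcoma cells imaged for beta-arrestin GFP spot formation; agonist potency where compounds increase beta-arrestin recruitment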
[8] = Luminescence Cell-Based Dose Retest to Confirm Inhibitors of Cancer Stem Cells. [Related pubchem assays (depositor defined):AID2717, AID2721]; format: functional; conditions: Homo sapiens
INS1 = assay: beta cell apoptosis inhibitors, cytokine rescue, dose response, luminescence, retest (AID 449756); format: functional, cell-based; conditions: Rattus norvegicus;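 note: cell death triggered by IL-1 beta plus TNF-alpha plus IFN-gamma mixture; protective hits raise ATP signal compared with cytokine alone wells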
Protein Rev = Protein Rev (Human immunodeficiency virus type 1 group M subtype B (isolate WMJ22)(HIV-1), UniProt P05866); assay: HIV-1 Rev-RRE RNA binding disruptors, dose response, biochemical, protein-RNA interaction (AID 842); parameters: species or system Human immunodeficiency virus 1
Protein Rev, sequence (P05866 whole entry): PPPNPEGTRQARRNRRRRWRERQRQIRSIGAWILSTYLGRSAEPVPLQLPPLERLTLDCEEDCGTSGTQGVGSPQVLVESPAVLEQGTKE

Streptococcus = assay: Luminescence Microorganism-Based Dose Response Follow up to Identify Compounds Cytotoxic to Streptococcus. [Related pubchem assays: 1677 (Project Summary), 1915, 1914, 1902 (Retest at Dose), 1900 (Counter Screen), 1662 (Primary HTS)]; format: functional, organism-based
[9] = biological target: Nucleotide-binding oligomerization domain-containing protein 1 (Homo sapiens, UniProt Q9Y239); assay: NOD1 signaling inhibitors, SAR follow-up, revised (AID 2333); format: functional
HEK293 = assay: cells; conditions: Homo sapiens;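 note: cells exposed to compound for 14 hours overnight before viability readout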
Tumor necrosis factor = Tumor necrosis factor (Homo sapiens, UniProt P01375); assay: TNFa-triggered NF-kB activation inhibitors, SAR follow-up, cell-based, revised (AID 2337); format: functional
[10] = biological target: Nucleotide-binding oligomerization domain-containing protein 2 (Homo sapiens, UniProt Q9HC29); assay: PubChem AID 2334; format: functional
Nucleotide-binding oligomerization domain-containing protein 2, sequence (Q9HC29 whole entry, the tested form may be a part): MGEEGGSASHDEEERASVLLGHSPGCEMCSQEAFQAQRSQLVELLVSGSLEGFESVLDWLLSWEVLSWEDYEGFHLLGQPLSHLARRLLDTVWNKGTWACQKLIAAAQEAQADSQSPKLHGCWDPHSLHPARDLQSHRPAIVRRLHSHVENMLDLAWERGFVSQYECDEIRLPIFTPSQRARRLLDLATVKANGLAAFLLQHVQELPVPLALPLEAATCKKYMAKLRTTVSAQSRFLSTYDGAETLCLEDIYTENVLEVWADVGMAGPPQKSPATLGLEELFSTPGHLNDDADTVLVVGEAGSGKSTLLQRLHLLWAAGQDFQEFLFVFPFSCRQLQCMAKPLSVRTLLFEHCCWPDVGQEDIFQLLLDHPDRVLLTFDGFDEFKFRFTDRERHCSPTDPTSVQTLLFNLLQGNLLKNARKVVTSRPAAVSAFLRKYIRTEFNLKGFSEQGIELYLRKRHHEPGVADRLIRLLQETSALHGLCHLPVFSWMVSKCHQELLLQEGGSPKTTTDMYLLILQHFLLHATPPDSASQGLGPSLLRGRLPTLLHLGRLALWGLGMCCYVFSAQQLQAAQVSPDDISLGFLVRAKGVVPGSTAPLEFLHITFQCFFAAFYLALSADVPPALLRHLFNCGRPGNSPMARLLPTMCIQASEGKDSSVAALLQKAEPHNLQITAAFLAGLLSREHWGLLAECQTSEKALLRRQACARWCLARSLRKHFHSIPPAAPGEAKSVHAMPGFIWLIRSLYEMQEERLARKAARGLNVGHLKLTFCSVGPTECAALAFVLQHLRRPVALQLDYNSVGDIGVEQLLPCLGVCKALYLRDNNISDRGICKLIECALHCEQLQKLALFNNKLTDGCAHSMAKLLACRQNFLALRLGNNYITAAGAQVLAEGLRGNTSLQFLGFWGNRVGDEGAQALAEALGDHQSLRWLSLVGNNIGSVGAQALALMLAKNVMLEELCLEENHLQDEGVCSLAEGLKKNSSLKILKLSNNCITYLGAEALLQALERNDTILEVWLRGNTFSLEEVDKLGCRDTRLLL

[11] = biological target: T3, Eukaryotic translation initiation factor 2-alpha kinase 3 (Homo sapiens, UniProt Q9NZJ5); assay: Dose response cell-based high-throughput screening assay to measure PERK inhibition. [Related pubchem assays: 1416 ]; format: functional
T3 sequence (Q9NZJ5 whole entry): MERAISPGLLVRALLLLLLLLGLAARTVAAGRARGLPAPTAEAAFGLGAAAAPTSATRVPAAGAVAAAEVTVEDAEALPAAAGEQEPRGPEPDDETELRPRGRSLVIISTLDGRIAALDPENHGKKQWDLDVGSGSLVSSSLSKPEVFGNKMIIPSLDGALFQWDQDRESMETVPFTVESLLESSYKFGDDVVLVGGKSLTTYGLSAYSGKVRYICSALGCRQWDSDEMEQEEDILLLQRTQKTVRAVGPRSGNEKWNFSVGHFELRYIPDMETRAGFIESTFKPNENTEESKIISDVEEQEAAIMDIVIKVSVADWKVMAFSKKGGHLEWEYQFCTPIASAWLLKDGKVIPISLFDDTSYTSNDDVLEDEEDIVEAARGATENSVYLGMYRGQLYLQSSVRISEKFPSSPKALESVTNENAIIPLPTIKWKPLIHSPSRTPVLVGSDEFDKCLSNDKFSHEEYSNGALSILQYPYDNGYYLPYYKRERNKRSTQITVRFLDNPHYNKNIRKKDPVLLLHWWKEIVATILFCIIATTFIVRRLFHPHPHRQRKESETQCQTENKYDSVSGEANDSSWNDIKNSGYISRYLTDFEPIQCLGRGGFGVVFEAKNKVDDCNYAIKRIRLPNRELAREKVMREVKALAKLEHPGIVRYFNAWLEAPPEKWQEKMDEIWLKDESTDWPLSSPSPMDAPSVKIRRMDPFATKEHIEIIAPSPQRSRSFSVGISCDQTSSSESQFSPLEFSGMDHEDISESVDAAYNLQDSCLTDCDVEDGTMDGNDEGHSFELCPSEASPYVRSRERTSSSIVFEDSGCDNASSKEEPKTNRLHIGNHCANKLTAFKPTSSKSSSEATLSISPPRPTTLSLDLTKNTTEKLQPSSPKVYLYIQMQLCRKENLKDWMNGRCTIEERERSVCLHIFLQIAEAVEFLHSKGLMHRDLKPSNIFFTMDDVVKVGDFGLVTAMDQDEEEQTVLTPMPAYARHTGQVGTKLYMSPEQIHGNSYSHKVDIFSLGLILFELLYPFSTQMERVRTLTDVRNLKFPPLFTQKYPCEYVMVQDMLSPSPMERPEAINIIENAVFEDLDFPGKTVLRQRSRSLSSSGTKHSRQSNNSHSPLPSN

[12] = biological target: T3, Eukaryotic translation initiation factor 2-alpha kinase 3; assay: Counterscreen assay for PERK inhibitors: Dose response cell-based high throughput screening assay to measure inhibition of PERK at 6 hours. [Related pubchem assays: 1522, 1416 ]; format: functional
Mucolipin-3 [13] = biological target: T4, Mucolipin-3 (Homo sapiens, UniProt Q8TDD5); assay: Dose response cell-based high-throughput screening assay for agonists of the transient receptor potential channel ML3 (TRPML3). [Related pubchem assays: 1526, 1424, 1448 ]; format: functional
T4 sequence (Q8TDD5 whole entry): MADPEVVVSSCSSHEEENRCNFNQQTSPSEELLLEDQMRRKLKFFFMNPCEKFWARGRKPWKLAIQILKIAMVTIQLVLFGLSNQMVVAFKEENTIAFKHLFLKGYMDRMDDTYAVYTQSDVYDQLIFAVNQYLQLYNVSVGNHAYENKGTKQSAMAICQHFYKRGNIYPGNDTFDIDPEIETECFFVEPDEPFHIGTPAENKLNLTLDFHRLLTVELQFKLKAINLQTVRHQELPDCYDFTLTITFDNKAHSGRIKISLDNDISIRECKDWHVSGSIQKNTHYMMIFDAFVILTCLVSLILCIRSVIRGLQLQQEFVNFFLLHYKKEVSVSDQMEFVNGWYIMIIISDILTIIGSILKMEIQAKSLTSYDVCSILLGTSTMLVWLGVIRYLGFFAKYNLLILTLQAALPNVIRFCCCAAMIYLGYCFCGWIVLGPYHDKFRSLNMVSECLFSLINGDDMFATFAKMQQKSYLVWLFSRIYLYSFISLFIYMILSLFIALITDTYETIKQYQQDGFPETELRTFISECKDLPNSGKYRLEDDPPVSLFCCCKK

Ion channel NompC [14] = biological target: T5, Ion channel NompC (Danio rerio, UniProt Q7T1G6); assay: Fluorescence counterscreen assay for TRPML3 agonists: dose response cell-based high-throughput screening assay to identify agonists of the transient receptor potential channel N1 (TRPN1). [Related pubchem assays: 1526, 1424, 1448 ]; format: functional
T5 sequence (Q7T1G6 whole entry): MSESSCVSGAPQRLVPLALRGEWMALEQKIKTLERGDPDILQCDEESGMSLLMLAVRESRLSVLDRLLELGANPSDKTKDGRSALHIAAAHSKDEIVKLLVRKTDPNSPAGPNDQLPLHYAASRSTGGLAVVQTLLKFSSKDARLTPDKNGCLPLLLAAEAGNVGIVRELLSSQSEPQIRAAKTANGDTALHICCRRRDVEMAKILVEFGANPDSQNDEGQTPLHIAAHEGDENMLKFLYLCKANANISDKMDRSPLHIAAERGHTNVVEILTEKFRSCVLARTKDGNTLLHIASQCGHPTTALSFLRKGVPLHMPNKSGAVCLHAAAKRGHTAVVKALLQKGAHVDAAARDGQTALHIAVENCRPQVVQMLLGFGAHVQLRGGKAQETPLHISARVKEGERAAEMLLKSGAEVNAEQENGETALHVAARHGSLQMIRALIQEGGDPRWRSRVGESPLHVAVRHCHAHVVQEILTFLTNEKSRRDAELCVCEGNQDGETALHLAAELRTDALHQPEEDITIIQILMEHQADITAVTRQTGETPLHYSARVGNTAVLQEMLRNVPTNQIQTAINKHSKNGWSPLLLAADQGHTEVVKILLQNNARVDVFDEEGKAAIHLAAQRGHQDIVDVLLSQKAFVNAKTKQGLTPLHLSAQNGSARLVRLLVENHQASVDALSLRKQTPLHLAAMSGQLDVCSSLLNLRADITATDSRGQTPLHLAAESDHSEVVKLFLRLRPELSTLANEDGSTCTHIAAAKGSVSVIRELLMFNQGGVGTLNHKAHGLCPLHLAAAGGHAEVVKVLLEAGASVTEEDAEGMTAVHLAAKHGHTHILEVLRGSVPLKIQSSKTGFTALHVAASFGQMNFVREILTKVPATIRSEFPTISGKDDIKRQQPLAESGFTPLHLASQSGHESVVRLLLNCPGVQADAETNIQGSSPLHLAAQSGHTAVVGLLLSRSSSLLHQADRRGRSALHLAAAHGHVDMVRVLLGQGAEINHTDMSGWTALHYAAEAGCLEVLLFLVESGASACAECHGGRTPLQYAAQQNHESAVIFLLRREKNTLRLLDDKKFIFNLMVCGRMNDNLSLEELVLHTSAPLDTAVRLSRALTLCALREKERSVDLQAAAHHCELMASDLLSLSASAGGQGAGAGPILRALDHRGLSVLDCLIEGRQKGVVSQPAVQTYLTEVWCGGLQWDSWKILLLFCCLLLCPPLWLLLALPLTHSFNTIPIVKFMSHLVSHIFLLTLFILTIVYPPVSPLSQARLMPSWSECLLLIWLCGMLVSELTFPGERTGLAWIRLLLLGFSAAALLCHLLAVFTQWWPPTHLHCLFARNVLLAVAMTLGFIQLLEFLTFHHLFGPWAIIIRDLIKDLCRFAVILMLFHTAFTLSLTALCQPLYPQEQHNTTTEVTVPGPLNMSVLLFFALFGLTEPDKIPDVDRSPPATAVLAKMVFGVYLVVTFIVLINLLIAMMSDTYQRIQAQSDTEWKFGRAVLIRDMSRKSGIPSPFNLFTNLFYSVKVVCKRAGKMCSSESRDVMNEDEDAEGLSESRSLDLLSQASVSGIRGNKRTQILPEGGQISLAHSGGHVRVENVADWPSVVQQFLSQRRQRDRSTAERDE

Mucolipin-3 [15] = biological target: T4, Mucolipin-3; assay: TRPML3 and TRPML2 channel agonists, cell-based, patch clamp, Fura-2 profiling panel, panel member TRPML3 Dose Response (AID 2116)
Ion channel NompC [16] = biological target: T5, Ion channel NompC; assay: TRPML3 and TRPML2 channel agonists, cell-based, patch clamp, Fura-2 profiling panel, panel member TRPN1 Dose Response (AID 2116)

Dual specificity protein phosphatase 3, sequence (P51452 whole entry): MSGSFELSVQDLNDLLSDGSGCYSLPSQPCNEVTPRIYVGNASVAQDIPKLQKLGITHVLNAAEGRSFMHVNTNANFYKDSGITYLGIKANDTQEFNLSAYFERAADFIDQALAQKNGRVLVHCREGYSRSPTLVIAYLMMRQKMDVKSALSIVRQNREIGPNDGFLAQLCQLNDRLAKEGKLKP

CC(Oc1ccc2oc(-c3ccccc3)c(C(=O)O)c2c1)C(=O)O (configuration not stated)
Ki [1]: 102 µM (inactive)

CN1CCN(C2=CC3=CC(=C(C#N)C#N)CCC3CC2)CC1 (configuration not stated)
IC50 [2]: 2.76 µM (active) | IC50 [3]: 13.9 µM (not active) | EC50 [4]: > 100 µM (active) | IC50 (Leucine aminopeptidase): 100 µM (active) | IC50 (Beta-lactamase [5]): 3.5 µM (active) | IC50 (Beta-lactamase [6]): 2.28 µM (active)

COc1cc(OC)c2cc(C(=O)N/N=C/c3cccc(OC)c3O)[nH]c2c1
EC50 [7]: 19.3 µM (active) | AC50 [8]: 3.97 µM (active) | AC50 (INS1): 3.8 µM (active)

COc1cccc(Nc2nc(N)nc(-c3oc4ccccc4c3C)n2)c1
IC50 (Protein Rev): > 79.4 µM (not active)

CC(C)(C)N/N=C1\CC(c2ccccc2)Oc2ccccc21 (configuration not stated)
EC50 (Streptococcus): > 500 µM (not active)

N#Cc1ccc(C(=O)Nc2nc3ccccc3n2Cc2ccc(Cl)cc2)cc1
IC50 [9]: > 20 µM (inactive) | IC50 (HEK293): > 20 µM (inactive) | IC50 (Tumor necrosis factor): > 20 µM (inactive) | IC50 [10]: > 20 µM (inactive)

Cn1nccc1NC(=O)Nc1ccc(OC(F)(F)F)cc1
EC50 [11]: > 55.7 µM (not active) | EC50 [12]: > 55.7 µM (not active)

O=S(=O)(Nc1ccccc1N1CCCCC1)c1ccc(Cl)s1
EC50 (Mucolipin-3 [13]): 0.872 µM (active) | EC50 (Ion channel NompC [14]): > 29.9 µM (not active) | EC50 (Mucolipin-3 [15]): 0.62 µM (active) | EC50 (Ion channel NompC [16]): > 29.9 µM (inactive)
